Source: patent US12215173B2, “Kappa opioid receptor peptide amide ligands” (priority 2019, dated 2025)
Like-named read-outs stand apart in the source and are kept apart here. Square brackets hold non-standard residues; d marks the D form. Peptide text beside a SMILES is read from it. * marks the point of attachment. Piperidin1yl(4-NH2,4-CO2Me) = COC(=O)C1(N)CCN(*)CC1; Pyrrolidinyl(3-NH2,3-CO2Me) = COC(=O)C1(N)CCN(*)C1; Piperidin1yl(4-NH2,4-COOH) = NC1(C(=O)O)CCN(*)CC1; Pyrrolidino(3-NH2-3-COOH) = NC1(C(=O)O)CCN(*)C1; dAla(cPr) = N[C@H](CC1CC1)C(=O)O; dTic = O=C(O)[C@H]1Cc2ccccc2CN1

How the values were obtained:
[1] = molecular target: recombinant human kappa (KOR) opioid receptor (Homo sapiens (Human), UniProt P41145); assay: biochemical; assay type: binding; details: HEK293 cell membranes, 0.5 nM [3H]diprenorphine
[2] = molecular target: recombinant human mu (MOR) opioid receptor (Homo sapiens (Human), UniProt P35372); assay: Opioid receptor radioligand binding assay, MOR
[3] = molecular target: recombinant human delta (DOR) opioid receptor (Homo sapiens (Human), UniProt P41143); assay: Opioid receptor radioligand binding assay, DOR
[4] = molecular target: Opioid Kappa Receptor (recombinant human, HEK293 cells) (Homo sapiens (Human), UniProt P41145); assay: cell-based; details: read-out: EC50
[5] = HEK293 cell membranes, 0.5 nM [3H]DAMGO, read-out: MOR, IC50
[6] = HEK293 cell membranes, 0.5 nM [3H]DADLE, read-out: DOR, IC50

Sequence of recombinant human delta (DOR) opioid receptor (P41143 whole entry, looked up): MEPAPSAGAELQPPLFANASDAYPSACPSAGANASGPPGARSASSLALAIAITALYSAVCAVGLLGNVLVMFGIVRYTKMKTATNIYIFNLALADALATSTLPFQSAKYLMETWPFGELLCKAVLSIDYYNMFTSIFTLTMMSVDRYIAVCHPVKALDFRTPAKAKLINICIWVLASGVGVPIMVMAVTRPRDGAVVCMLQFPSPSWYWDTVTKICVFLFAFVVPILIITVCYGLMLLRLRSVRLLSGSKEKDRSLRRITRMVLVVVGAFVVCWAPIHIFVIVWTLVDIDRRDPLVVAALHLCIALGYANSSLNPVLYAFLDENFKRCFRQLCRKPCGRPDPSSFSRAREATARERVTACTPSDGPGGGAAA

Row | Compound | IC50 [1] [µM] | IC50 [2, 5] [µM] | IC50 [3, 6] [µM] | EC50 [4] [µM] | IC50 [2] [µM] | IC50 [3] [µM]
1 | CNC(=O)C(=O)N1CCN(C(=O)[C@@H](CCCCN)NC(=O)[C@@H](CC(C)C)NC(=O)[C@@H](Cc2ccccc2)NC(=O)[C@H](N)Cc2ccccc2)CC1 [Compound 13-27] | 0.00053 | > 10 | > 10 | 0.012 |  | 
2 | CC(C)C[C@@H](NC(=O)[C@@H](Cc1ccccc1)NC(=O)[C@H](N)Cc1ccccc1)C(=O)N[C@H](CCCCN)C(=O)N1CCN(C(=O)N(C)C)CC1 [Compound 13-59] | 0.00036 | > 10 | > 10 | 0.0143 |  | 
3 | CCNC(=O)C(=O)NC1CCN(C(=O)[C@@H](CCCCN)NC(=O)[C@@H](CC(C)C)NC(=O)[C@@H](Cc2ccccc2)NC(=O)[C@H](N)Cc2ccccc2)CC1 [Compound 13-35] | 0.00031 | 8.43 | > 10 | 0.0108 |  | 
4 | COC(=O)C1(N)CCN(C(=O)[C@@H](CCCCN)NC(=O)[C@@H](CC2CC2)NC(=O)[C@@H](Cc2ccccc2)NC(=O)[C@H](N)Cc2ccccc2)C1 (stereo partly drawn) [Compound 118] (H-[dF][dF][dAla(cPr)][dK]-{Pyrrolidinyl(3-NH2,3-CO2Me)}) | 0.00033 | > 10 | > 10 | 0.00931 |  | 
5 | CC(C)C[C@@H](NC(=O)[C@@H](Cc1ccccc1)NC(=O)[C@H](N)Cc1ccccc1)C(=O)N[C@H](CCCCN)C(=O)N1CCC(NC(=O)C(N)C(=O)O)CC1 (stereo partly drawn) [Compound 13-40] | 0.0003 | 6.39 | > 10 | 0.00748 |  | 
6 | CC(C)C[C@@H](NC(=O)[C@@H](Cc1ccccc1)NC(=O)[C@H](N)Cc1ccccc1)C(=O)N[C@H](CCCCN)C(=O)NCc1ccnc(C(=O)O)c1 [Compound 13-8] | 0.00604 | > 10 | > 10 | 0.0147 |  | 
7 | COC(=O)C1(N)CCN(C(=O)[C@@H](CCCCN)NC(=O)[C@@H](CC(C)C)NC(=O)[C@@H](Cc2ccccc2)NC(=O)[C@H](N)Cc2ccc(F)cc2)CC1 [Compound 184] |  |  |  | 0.00626 |  | 
8 | CC(C)C[C@@H](NC(=O)[C@@H](Cc1ccccc1)NC(=O)[C@H](N)Cc1ccccc1)C(=O)N[C@H](CCCCN)C(=O)NCc1ccc2c(c1)OCO2 [Compound 13-1] | 0.00196 |  |  | 0.0423 | 2.08 | > 10
9 | CC(C)C[C@@H](NC(=O)[C@@H](Cc1ccccc1)NC(=O)[C@H](N)Cc1ccccc1)C(=O)N[C@H](CCCCN)C(=O)N1CCC(O)(CO)CC1 [Compound 13-65] |  |  |  | 0.00168 |  | 
10 | CC(C)C[C@@H](NC(=O)[C@@H](Cc1ccccc1)NC(=O)[C@H](N)Cc1ccccc1)C(=O)N[C@H](CCCCN)C(=O)N1CCC(NC(=O)/C=C\C(=O)NC(N)=O)CC1 [Compound 13-54] | 0.00021 |  |  | 0.0151 | 1.53 | > 10
11 | CC(=O)N[C@@H](CCC(N)=O)C(=O)NC1CCN(C(=O)[C@@H](CCCCN)NC(=O)[C@@H](CC(C)C)NC(=O)[C@@H](Cc2ccccc2)NC(=O)[C@H](N)Cc2ccccc2)CC1 [Compound 13-56] | 0.00035 |  |  | 0.0167 | > 10 | > 10
12 | COCCOCCOCCNC(=O)[C@@H](CCCCN)NC(=O)[C@@H](CC(C)C)NC(=O)[C@@H](Cc1ccccc1)NC(=O)[C@H](N)Cc1ccccc1 [Compound 13-5] | 0.00592 | > 10 | > 10 | 0.0158 |  | 
13 | CC(C)C[C@@H](NC(=O)[C@@H](Cc1ccccc1)NC(=O)[C@H](N)Cc1ccccc1)C(=O)N[C@H](CCCCN)C(=O)N1CCOCCOCCOCC1 [Compound 13-15] | 0.00041 | > 10 | > 10 | 0.0515 |  | 
14 | COC(=O)C1(N)CCN(C(=O)CNC(=O)[C@@H](CCCCN)NC(=O)[C@@H](CC(C)C)NC(=O)[C@@H](Cc2ccccc2)NC(=O)[C@H](N)Cc2ccccc2)CC1 [Compound 66] (H-[dF][dF][dL][dK]G-{Piperidin1yl(4-NH2,4-CO2Me)}) | 0.0209 |  |  | 0.0129 | 0.307 | > 10
15 | CC(C)C[C@@H](NC(=O)[C@@H](Cc1ccccc1)NC(=O)[C@H](N)Cc1ccccc1)C(=O)N[C@H](CCCCN)C(=O)NCc1cccc(C(=O)O)n1 [Compound 13-6] |  |  |  | 0.0305 |  | 
16 | CC(C)C[C@@H](NC(=O)[C@@H](Cc1ccccc1)NC(=O)[C@H](N)Cc1ccccc1)C(=O)N[C@H](CCCCN)C(=O)N1CCNC(=O)C1 [Compound 13-14] | 0.00021 | > 10 | > 10 | 0.0129 |  | 
17 | NCCCC[C@@H](NC(=O)[C@@H](CC1CC1)NC(=O)[C@@H](Cc1ccccc1)NC(=O)[C@H](N)Cc1ccccc1)C(=O)N1CCC(N)(C(=O)O)C1 (stereo partly drawn) [Compound 119] (H-[dF][dF][dAla(cPr)][dK]-{Pyrrolidino(3-NH2-3-COOH)}) | 0.00236 |  |  | 0.0231 |  | 

Row | Compound | IC50 [1] [µM] | IC50 [2, 5] [µM] | IC50 [3, 6] [µM] | EC50 [4] [µM] | IC50 [2] [µM] | IC50 [3] [µM]
18 | CC(C)C[C@@H](NC(=O)[C@@H](Cc1ccccc1)NC(=O)[C@H](N)Cc1ccccc1)C(=O)N[C@H](CCCCN)C(=O)N1CCC(NC(=O)CC[C@H](N)C(N)=O)CC1 [Compound 13-41] | 0.00021 | 8.22 | > 10 | 0.00912 |  | 
19 | CC(C)C[C@@H](NC(=O)[C@@H](Cc1ccccc1)NC(=O)[C@H](N)Cc1ccccc1)C(=O)N[C@H](CCCCN)C(=O)NCC(=O)N1CCC(N)(C(=O)O)CC1 [Compound 67] (H-[dF][dF][dL][dK]G-{Piperidin1yl(4-NH2,4-COOH)}) | 0.0248 |  |  | 0.0515 | 5.15 | > 10
20 | CC(C)C[C@@H](NC(=O)[C@@H](Cc1ccccc1)NC(=O)[C@H](N)Cc1ccccc1)C(=O)N[C@H](CCCCN)C(=O)N1CCC(N)(C(=O)OCCO)C1 (stereo partly drawn) [Compound 50] | 0.00039 | 7.53 | > 10 | 0.00907 |  | 
21 | CC(C)C[C@@H](NC(=O)[C@@H](Cc1ccccc1)NC(=O)[C@H](N)Cc1ccccc1)C(=O)N[C@H](CCCCN)C(=O)NCc1cccnc1C(=O)O [Compound 13-7] | 0.0114 |  |  | 0.0247 | > 10 | > 10
22 | CNCCOC(=O)C1(N)CCN(C(=O)[C@@H](CCCCN)NC(=O)[C@@H](CC(C)C)NC(=O)[C@@H](Cc2ccccc2)NC(=O)[C@H](N)Cc2ccccc2)C1 (stereo partly drawn) [Compound 60] | 0.00094 | > 10 | > 10 | 0.00719 |  | 
23 | COC(=O)C(=O)NC1CCN(C(=O)[C@@H](CCCCN)NC(=O)[C@@H](CC(C)C)NC(=O)[C@@H](Cc2ccccc2)NC(=O)[C@H](N)Cc2ccccc2)CC1 [Compound 13-29] | 0.00029 | 0.00686 | > 10 | 0.0155 |  | 
24 | COC(=O)/C=C/C(=O)N1CCN(C(=O)[C@@H](CCCCN)NC(=O)[C@@H](CC(C)C)NC(=O)[C@@H](Cc2ccccc2)NC(=O)[C@H](N)Cc2ccccc2)CC1 [Compound 13-24] | 0.00052 | 7.99 | > 10 | 0.0315 |  | 
25 | CC(C)C[C@@H](NC(=O)[C@@H](Cc1ccccc1)NC(=O)[C@H](N)Cc1ccccc1)C(=O)N[C@H](CCCCN)C(=O)N1CCC(NC(=O)C(=O)O)CC1 [Compound 13-30] | 0.00015 | > 10 | > 10 | 0.00477 |  | 
26 | CC(C)C[C@@H](NC(=O)[C@@H](Cc1ccccc1)NC(=O)[C@H](N)Cc1ccccc1)C(=O)N[C@H](CCCCN)C(=O)NCc1ccc(O)c(O)c1 [Compound 13-10] | 0.00067 | > 10 | > 10 | 0.0231 |  | 
27 | COC(=O)/C=C/C(=O)NC1CCN(C(=O)[C@@H](CCCCN)NC(=O)[C@@H](CC(C)C)NC(=O)[C@@H](Cc2ccccc2)NC(=O)[C@H](N)Cc2ccccc2)CC1 [Compound 13-19] | 0.00033 | > 0.727 | > 10 | 0.0758 |  | 
28 | CC(C)C[C@@H](NC(=O)[C@@H](Cc1ccccc1)NC(=O)[C@H]1Cc2ccccc2CN1)C(=O)N[C@H](CCCCN)C(=O)N1CCC(N)(C(=O)O)C1 (stereo partly drawn) [Compound 169] (H-[dTic][dF][dL][dK]-{Pyrrolidino(3-NH2-3-COOH)}) |  |  |  | 0.167 |  | 
29 | CC(C)C[C@@H](NC(=O)[C@@H](Cc1ccccc1)NC(=O)[C@H](N)Cc1ccccc1)C(=O)N[C@H](CCCCN)C(=O)NCCC[C@H](N)C(=O)O [Compound 13-44] |  |  |  | 0.00475 |  | 
30 | COC(=O)C1(N)CCN(C(=O)[C@@H](CCCCN)NC(=O)[C@@H](CC(C)C)NC(=O)[C@@H](Cc2ccccc2)NC(=O)[C@H](N)Cc2ccc(F)cc2)C1 (stereo partly drawn) [Compound 181] |  |  |  | 0.0087 |  | 
31 | N=C(N)NCCC[C@@H](NC(=O)[C@@H](CC1CC1)NC(=O)[C@@H](Cc1ccccc1)NC(=O)[C@H](N)Cc1ccccc1)C(=O)N1CCC(N)(C(=O)O)C1 (stereo partly drawn) [Compound 134] (H-[dF][dF][dAla(cPr)][dR]-{Pyrrolidino(3-NH2-3-COOH)}) | 0.00235 |  |  | 0.0126 |  | 
32 | COC(=O)C1(N)CCN(C(=O)[C@@H](CCCCN)NC(=O)[C@@H](CC(C)C)NC(=O)[C@@H](Cc2ccccc2)NC(=O)[C@H]2Cc3ccccc3CN2)C1 (stereo partly drawn) [Compound 168] (H-[dTic][dF][dL][dK]-{Pyrrolidinyl(3-NH2,3-CO2Me)}) | 0.00423 |  |  |  | 2.41 | > 10
33 | COC(=O)C1(N)CCN(C(=O)[C@@H](CCCNC(=N)N)NC(=O)[C@H]2CCCN2C(=O)[C@@H](Cc2ccccc2)NC(=O)[C@H](N)Cc2ccccc2)C1 (stereo partly drawn) [Compound 28] (H-[dF][dF][dP][dR]-{Pyrrolidinyl(3-NH2,3-CO2Me)}) | > 0.2 | > 10 | > 10 |  |  | 
34 | CC(C)C[C@@H](NC(=O)[C@@H](Cc1ccccc1)NC(=O)[C@H](N)Cc1ccccc1)C(=O)N[C@H](CCCCN)C(=O)NC1CCN(C(=O)C(=O)NC2CC2)CC1 [Compound 13-37] | 0.011 | 9.29 | > 10 |  |  | 
